Experimental data reported in publication PMC6261997, “Synergistic enzymatic and bioorthogonal reactions for selective prodrug activation in living systems” (Nature Communications, 2018).
Like-named read-outs stand apart in the source and are kept apart here.

Experiments:
HeLa cells = experiment: MTT cell viability / cytotoxicity assay, HeLa cells; assay type: cell-based; details: for EC50: Homo sapiens, HeLa
Procedure: (§1) Cells were plated in flat-bottom 96-well plates at a density of 3 × 10^3 cells per well. After 12 h of cell attachment, the cell culture medium was replaced with 100 μL of pre-warmed media containing the compounds at different concentrations. After 24–72 h of incubation, cell proliferation was assessed by the MTT assay. A fresh mixture of 10 μL of thiazolyl blue tetrazolium bromide (MTT) and 90 μL of medium were freshly added to each well. After incubation for 4 h, the medium was gently removed. The formazan crystals that formed were dissolved in 110 μL of DMSO, and the absorbance was subsequently measured with a plate reader (Perkin Elmer) at 490 nm. EC50 values were calculated using Origin software. To measure the cytotoxicity of 2, HeLa cells, HUVECs, Saos-2 cells and CCC-HEH-2 cells were incubated with 100 μL of 1–500 μM 2 for 24 h, and then, cell viability was determined. To measure the cytotoxicity of TCO-Dox or Dox, HeLa cells, HUVECs, Saos-2 cells or CCC-HEH-2 cells were incubated with 200 μL of 0.001–10 μM TCO-Dox or Dox for 72 h, and the cell viability was determined. To determine the cytotoxicity of activated Dox, HeLa cells, HUVECs, […], and then, 2 was removed and 200 μL of 0.0001–10 μM TCO-Dox was added for 72 h of incubation, and cell viability was determined. […]
(§2) Prodrug activation efficacy in cells: Cells were plated on flat bottom 96-well plates at a
(§3) density of 3x10^3 cells per well. After 12 h attachment, cells were incubated with 100 µL
(§4) 500 µM of 2 for 6 h before removing 2 and the addition of 200 µL 0.0001-10 µM of […]

Saos-2 cells = experiment: MTT cell viability / cytotoxicity assay, Saos-2 cells; assay type: cell-based
Procedure: (§5) Cells were plated in flat-bottom 96-well plates at a density of 3 × 10^3 cells per well. After 12 h of cell attachment, the cell culture medium was replaced with 100 μL of pre-warmed media containing the compounds at different concentrations. After 24–72 h of incubation, cell proliferation was assessed by the MTT assay. A fresh mixture of 10 μL of thiazolyl blue tetrazolium bromide (MTT) and 90 μL of medium were freshly added to each well. After incubation for 4 h, the medium was gently removed. The formazan crystals that formed were dissolved in 110 μL of DMSO, and the absorbance was subsequently measured with a plate reader (Perkin Elmer) at 490 nm. EC50 values were calculated using Origin software. To measure the cytotoxicity of 2, HeLa cells, HUVECs, Saos-2 cells and CCC-HEH-2 cells were incubated with 100 μL of 1–500 μM 2 for 24 h, and then, cell viability was determined. To measure the cytotoxicity of TCO-Dox or Dox, HeLa cells, HUVECs, Saos-2 cells or CCC-HEH-2 cells were incubated with 200 μL of 0.001–10 μM TCO-Dox or Dox for 72 h, and the cell viability was determined. To determine the cytotoxicity of activated Dox, HeLa cells, HUVECs, Saos-2 cells or CCC-HEH-2 cells were pre-incubated with 100 μL of 500 μM 2 for 6 h, and then, 2 was removed and 200 μL of 0.0001–10 μM TCO-Dox was added for 72 h of incubation, and cell viability was determined. […]
Prodrug activation efficacy in cells: Cells were plated on flat bottom 96-well plates at a density of 3x10^3 cells per well. After 12 h attachment, cells were incubated with 100 µL 500 µM of 2 for 6 h before removing 2 and the addition of 200 µL 0.0001-10 µM of TCO-Dox. Cells were further incubated for 72 h before measuring the viability by the MTT […]
Clonogenic assay of cells in vitro: Clonogenic assay was performed according to the standard protocol.6 2×10^5 attached cells were treated with 500 µM of 2 for 6 h in culture dishes. Cells were then detached, re-suspended in cultural medium and counted accurately. The cell suspension was diluted into the desired seeding concentration and cells were seeded in 6-well plates at a density of 200 cells per well for CCC-HEH-2 and 400 cells per well for HeLa, Saos-2 and HUVECs. After incubation for 10 days, the cultural medium was removed and cells were rinsed carefully with PBS. 2 mL of a mixture of 6.0% (vol/vol) glutaraldehyde and 0.5% (wt/vol) crystal violet was added and kept for 30 min.
The glutaraldehyde crystal violet mixture was removed carefully. The colonies were rinsed with water and dried in normal air at room temperature. The number of the colonies was counted using a stereomicroscope.
When untreated cells are plated as a single-cell suspension at low densities, they will grow to colonies. The plating efficiency (PE) is the ratio of the number of colonies to the […]
(Supplementary Equation 1)
The number of colonies that arise after treatment of cells, expressed in terms of PE, is called the surviving fraction (SF): […]

[1] = UPLC-MS/MS pharmacokinetic analyses in tumour, liver and plasma; assay type: in vivo, BALB/c nude mice; details: i.v. 30 mg kg-1 TCO-Dox
Procedure: For in vivo prodrug activation, mice received an i.v. injection of 50 mg kg^−1 2 and a subsequent 30 mg kg^−1 TCO-Dox after a 2-h interval. After different time intervals, blood samples were collected from the tail veins, and then, the tumours and livers were harvested for UPLC-MS/MS analysis.
UPLC-MS/MS analyses: UPLC-MS/MS metabolomic analyses were performed using a
multiple reaction-monitoring mode (MRM). Data acquisition and processing were performed using LabSolutions version 5 software. Measurements were carried out at
Dox, solvent A consisted of 0.1% formic acid in water and solvent B consisted of 0.1% formic acid in mass spectrometric grade acetonitrile; (2) for compound TCO-Dox, solvent A consisted of 100% water and solvent B consisted of 100% mass spectrometric grade acetonitrile. Injection volume was 2 or 10 L. The mass spectrometer was interfaced with the liquid chromatograph using an electrospray ion source. The nitrogen nebulizing gas flow was set at 10 L min-1 and the drying gas flow at 15 mL min-1. 4500 V were used for the interface voltage. The temperature of the block heater was maintained at 400 °C and the one of the desolvation line at 250 °C. The MRM transitions were
Dox. The collision gas used was argon at 230 kPa. The dwell time was set to 100 msec and the pause time to 3 msec.
Sample preparation: blood samples were collected from the tail vein of mice. Plasma […]

[2] = In vitro decaging of TCO-Dox by 2 (UPLC-MS); details: TCO-Dox mixed with 2 in 25% acetonitrile in H2O, 37 °C
Procedure: The Tz counterpart prodrug TCO-Dox was prepared according to previously published procedures using the axial tautomer of TCO[27]. After the selection of optimized Tz and TCO, the decaging reactions in our study were further characterized (Fig. 2d). After mixing 2 μL of 10 mM TCO-Dox with 2.5 μL of 20 mM 2 in 25% acetonitrile in H2O at 37 °C, the reaction mixture was analysed by ultra-performance liquid chromatography-mass spectrometry (UPLC-MS) at different time points. […] Similarly, we prepared TCO-caged coumarin (TCO-CMR, see Supplementary Methods for a detailed synthesis protocol)[23]. According to a previously developed fluorescence liberation, the fluorescence of coumarin was restored rapidly in the presence of Tz derivatives (Supplementary Fig. 6).

CCC-HEH-2 cells = experiment: MTT cell viability / cytotoxicity assay, CCC-HEH-2 cells; assay type: cell-based; details: Homo sapiens, read-out: EC50, CCC-HEH-2
Procedure: as §5

HUVECs = experiment: MTT cell viability / cytotoxicity assay, HUVECs; assay type: cell-based; details: for EC50: Homo sapiens, HUVEC
Procedure: as §1, §2, §3, §4

HeLa tumours = experiment: Tumour inhibition test, subcutaneous HeLa xenograft; assay type: in vivo, BALB/c nude mice
Procedure: All animal studies were performed in accordance with the Institutional Animal Use and Care Regulations approved by the National Institutes of Health Clinical Center/Animal Care and Use Committee (NIH CC/ACUC). Athymic female nude mice (5–6 weeks old) were purchased from Beijing Huafukang Bioscience Co., Ltd., and raised in a specific-pathogen-free barrier facility. Tumour-bearing mice were established by subcutaneously injecting a suspension of 10^6 HeLa cells per mouse into the front flank of each nude mouse.
After 14 days, the mice were sacrificed.

With `COc1cccc2c1C(=O)c1c(O)c3c(c(O)c1C2=O)CC(O)(C(=O)CO)CC3OC1CC(NC(=O)OC2C=CCCCCC2)C(O)C(C)O1` (stereo not shown) [TCO-Dox] the “EC50 higher than that of Dox, HeLa cells” value (HeLa cells; 72 h) was roughly 10 fold, the EC50 (HeLa cells; read-out: EC50, HeLa, 72 h cytotoxicity, MTT, Activated Dox: cells pre-incubated with 500 μM 2 for 6 h, then TCO-Dox 72 h) was 6.79 µM and the EC50 (HeLa cells; read-out: EC50 against HeLa cells, cells pre-incubated with 300 μM 2 for 6 h, then TCO-Dox 72 h) was 1.2 µM. The EC50 (HeLa cells; read-out: EC50 against HeLa cells, cells pre-incubated with 500 μM 2 for 6 h, then TCO-Dox 72 h) was 0.0298 µM, the “EC50 against HeLa cells with 300 μM 2 higher than with 500 μM 2” value (HeLa cells; pre-incubation 6 h, then TCO-Dox 72 h) was “approximately 40 fold” and the “EC50 ratio CCC-HEH-2/HeLa” value (HeLa cells; ratio of 72 h EC50 values) was 0.908. For the same molecule, the “EC50 ratio HUVECs/HeLa” value (HeLa cells; ratio of 72 h EC50 values) was 0.855, the EC50 (Saos-2 cells; Homo sapiens, SAOS-2, read-out: EC50, Saos-2) was 7.57 µM and the “EC50 ratio CCC-HEH-2/Saos-2” value (Saos-2 cells; ratio of 72 h EC50 values) was 0.815. For the same molecule, the “EC50 ratio HUVECs/Saos-2” value (Saos-2 cells; ratio of 72 h EC50 values) was 0.767, the “concentration of TCO-Dox in plasma” value [1] was “relatively high concentration of TCO-Dox remaining in the blood” and the “time to complete liberation of Dox” value [2] was no more than 2 min. The EC50 (CCC-HEH-2 cells) was 6.17 µM, the “EC50 higher than that of Dox, HUVECs” value (HUVECs; 72 h) was “more than 40 fold” and the EC50 (HUVECs; read-out: EC50, HUVECs, 72 h cytotoxicity, MTT, Activated Dox: cells pre-incubated with 500 μM 2 for 6 h, then TCO-Dox 72 h) was 5.81 µM. For the same molecule, the EC50 (HUVECs; read-out: EC50 against HUVECs, cells pre-incubated with 300 μM 2 for 6 h, then TCO-Dox 72 h) was 0.367 µM, the EC50 (HUVECs; read-out: EC50 against HUVECs, cells pre-incubated with 500 μM 2 for 6 h, then TCO-Dox 72 h) was 0.272 µM and the “histological examination of dissected tumours (HE staining)” value (HeLa tumours; after treatment for 14 days) was “the HeLa cells remained normal”. For the same molecule, the tumour growth (HeLa tumours; i.v., three courses (day 0, 3, 6), 50 mg kg^−1 2, 30 mg kg^−1 TCO-Dox, 5 mg kg^−1 Dox, or 50 mg kg^−1 2 then 30 mg kg^−1 TCO-Dox after 2 h) was “rapid growth similar to that observed in the saline control group”.
